Assay results: patent publication US9156845B2, “4-(substituted amino)-7H-pyrrolo[2,3-d] pyrimidines as LRRK2 inhibitors” (Pfizer Inc., priority 2012, dated 2015)

Key:
[1] = target: GST-tagged truncated LRRK2 (Homo sapiens (Human), UniProt Q5S007); test: LRRK2 Lantha Screen kinase assay; assay type: biochemical; conditions: geometric mean of 2-5 determinations unless otherwise indicated (a: >=6 determinations; b: single determination); read-out: LRRK2 WT IC50
mutant G2019S LRRK2 = mutant G2019S LRRK2 (Homo sapiens (Human), UniProt Q5S007, G2019S); test: LRRK2 Lantha Screen kinase assay, mutant enzyme; assay type: biochemical; conditions: geometric mean of 2-5 determinations unless otherwise indicated (a: >=6 determinations; b: single determination)
Chain of mutant G2019S LRRK2 (Q5S007 970-2527 G2019S): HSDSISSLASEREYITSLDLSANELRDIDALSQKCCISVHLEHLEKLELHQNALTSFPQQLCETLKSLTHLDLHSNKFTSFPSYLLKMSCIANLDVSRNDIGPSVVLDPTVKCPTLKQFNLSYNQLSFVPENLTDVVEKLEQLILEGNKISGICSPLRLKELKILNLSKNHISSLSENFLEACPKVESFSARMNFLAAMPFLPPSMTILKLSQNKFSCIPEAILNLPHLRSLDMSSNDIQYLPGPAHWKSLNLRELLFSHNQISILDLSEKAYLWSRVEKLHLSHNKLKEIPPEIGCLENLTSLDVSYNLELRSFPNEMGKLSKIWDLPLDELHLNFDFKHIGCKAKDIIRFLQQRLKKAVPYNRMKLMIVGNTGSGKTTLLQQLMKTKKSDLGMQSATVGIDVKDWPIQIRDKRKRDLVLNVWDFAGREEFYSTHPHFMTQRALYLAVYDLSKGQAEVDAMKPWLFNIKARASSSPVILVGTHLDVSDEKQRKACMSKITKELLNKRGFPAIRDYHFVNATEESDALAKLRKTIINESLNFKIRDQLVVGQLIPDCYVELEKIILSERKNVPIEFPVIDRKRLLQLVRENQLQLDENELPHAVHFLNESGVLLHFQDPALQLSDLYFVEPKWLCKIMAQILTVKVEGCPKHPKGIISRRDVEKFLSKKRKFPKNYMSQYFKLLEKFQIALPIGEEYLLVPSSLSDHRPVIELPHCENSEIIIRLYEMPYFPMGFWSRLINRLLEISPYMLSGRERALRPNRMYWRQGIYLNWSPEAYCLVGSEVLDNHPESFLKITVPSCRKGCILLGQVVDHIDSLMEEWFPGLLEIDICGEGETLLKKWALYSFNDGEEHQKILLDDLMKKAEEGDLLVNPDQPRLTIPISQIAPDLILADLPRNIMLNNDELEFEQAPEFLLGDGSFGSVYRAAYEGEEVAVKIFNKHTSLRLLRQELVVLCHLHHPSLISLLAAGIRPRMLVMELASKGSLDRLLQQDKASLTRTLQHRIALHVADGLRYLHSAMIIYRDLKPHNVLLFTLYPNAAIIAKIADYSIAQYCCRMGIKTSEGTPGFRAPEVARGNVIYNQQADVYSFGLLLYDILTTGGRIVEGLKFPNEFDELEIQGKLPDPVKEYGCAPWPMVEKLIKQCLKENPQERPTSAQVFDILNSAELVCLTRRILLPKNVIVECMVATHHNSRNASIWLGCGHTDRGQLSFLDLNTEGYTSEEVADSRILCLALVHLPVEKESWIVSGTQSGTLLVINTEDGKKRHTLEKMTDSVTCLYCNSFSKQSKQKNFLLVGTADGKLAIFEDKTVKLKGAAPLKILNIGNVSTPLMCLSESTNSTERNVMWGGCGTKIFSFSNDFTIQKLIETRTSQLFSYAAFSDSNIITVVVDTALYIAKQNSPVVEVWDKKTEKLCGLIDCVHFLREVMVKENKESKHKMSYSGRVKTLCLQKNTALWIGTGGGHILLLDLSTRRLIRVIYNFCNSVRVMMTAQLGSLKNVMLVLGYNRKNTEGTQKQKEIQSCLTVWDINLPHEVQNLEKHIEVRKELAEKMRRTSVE
Procedure: LRRK2 kinase activity was measured using Lantha Screen technology from Invitrogen. GST-tagged truncated LRRK2 from Invitrogen (Cat # PV4874) was incubated with a fluorescein-labeled peptide substrate based upon ezrin/radixin/moesin (ERM), also known as LRRKtide (Invitrogen cat #PR8976A), in the presence of a dose response of compound. Upon completion, the assay was stopped and detected with a terbium labeled anti-phospho-ERM antibody (Invitrogen, cat #PR8975A). […] Aliquots (3.5 μL) of the 100% DMSO dose response were mixed with 46.5 μL water then 1 μL of this mixture was added to the 3 μL substrate mix in the 384-well plate. The kinase reaction was started with 3 μL of a working solution of LRRK2 enzyme at a concentration of 4 μg/mL. […] The reaction was allowed to progress at room temperature for two hours and then stopped with the addition of 7 μL of detection buffer (20 mM Tris pH 7.6, 0.01% NP-40, 0.02% NaN3, 6 mM EDTA with 2 nM terbium labeled anti-phospho-ERM).
All final concentrations of substrate ATP and enzyme were the same.

Chain of GST-tagged truncated LRRK2 (Q5S007 970-2527): as the sequence (Q5S007 970-2527 G2019S) above, with S1050G counted along it

IC50 [1]	IC50 (mutant G2019S LRRK2)	Compound
17 nM	121 nM	COCC1CN(c2ncnc3[nH]cc(-c4cccc(C#N)c4)c23)CCO1 (stereo not shown) [Example 30, 3-{4-[2-(methoxymethyl)morpholin-4-yl]-7H-pyrrolo[2,3-d]pyrimidin-5-yl}benzonitrile]
127 nM	1080 nM	N#Cc1cccc(-c2c(C(F)F)[nH]c3ncnc(N4CCOCC4)c23)c1 [Example 198, 3-[6-(Difluoromethyl)-4-(morpholin-4-yl)-7H-pyrrolo[2,3-d]pyrimidin-5-yl]benzonitrile]
18 nM	69 nM	C[C@@H]1CN(c2ncnc3[nH]cc(-c4cccc(C#N)c4)c23)CCO1 [Example 79, 3-{4-[(2R)-2-methylmorpholin-4-yl]-7H-pyrrolo[2,3-d]pyrimidin-5-yl}benzonitrile]
2 nM	7 nM	N#Cc1cccc(-c2c[nH]c3ncnc(N4CCOCC4)c23)c1F [Example 78, 2-fluoro-3-[4-(morpholin-4-yl)-7H-pyrrolo[2,3-d]pyrimidin-5-yl]benzonitrile]
22 nM	30 nM	Fc1ccccc1-c1c[nH]c2ncnc(N3CCOCC3)c12 [Example 84, 5-(2-fluorophenyl)-4-(morpholin-4-yl)-7H-pyrrolo[2,3-d]pyrimidine]
91 nM	273 nM	CC1CCN(c2ncnc3[nH]cc(-c4cccc(C#N)c4)c23)CC1 [Example 62, 3-[4-(4-methylpiperidin-1-yl)-7H-pyrrolo[2,3-d]pyrimidin-5-yl]benzonitrile]
40 nM	201 nM	CN1CCC2(CC1)CN(c1ncnc3[nH]cc(-c4cccc(C#N)c4)c13)CCO2 [Example 28, 3-[4-(9-methyl-1-oxa-4,9-diazaspiro[5.5]undec-4-yl)-7H-pyrrolo[2,3-d]pyrimidin-5-yl]benzonitrile]
55 nM	39 nM	C[C@H]1CCCN(c2ncnc3[nH]cc(-c4cccc(C(=O)O)c4)c23)C1 [Example 63, 3-{4-[(3S)-3-methylpiperidin-1-yl]-7H-pyrrolo[2,3-d]pyrimidin-5-yl}benzoic acid]
53 nM	396 nM	CN(C)c1ncnc2[nH]cc(-c3cc(F)cc(C#N)c3)c12 [Example 75, 3-[4-(dimethylamino)-7H-pyrrolo[2,3-d]pyrimidin-5-yl]-5-fluorobenzonitrile]
18 nM	18 nM	C[C@H]1CCCN(c2ncnc3[nH]cc(-c4cccc(CO)c4)c23)C1 [Example 7, (3-{4-[(3S)-3-Methylpiperidin-1-yl]-7H-pyrrolo[2,3-d]pyrimidin-5-yl}phenyl)methanol]
77 nM	80 nM	Cn1cc(-c2c[nH]c3ncnc(N4CCOC(CO)C4)c23)cn1 (stereo not shown) [Example 124, {4-[5-(1-methyl-1H-pyrazol-4-yl)-7H-pyrrolo[2,3-d]pyrimidin-4-yl]morpholin-2-yl}methanol]
34 nM	244 nM	N#Cc1cccc(-c2c[nH]c3ncnc(N4CCCC5(CCOC5)C4)c23)c1 (stereo not shown) [Example 43, 3-[4-(2-oxa-7-azaspiro[4.5]dec-7-yl)-7H-pyrrolo[2,3-d]pyrimidin-5-yl]benzonitrile]
32 nM	37 nM	COc1cncc(-c2c[nH]c3ncnc(N4CCOCC4)c23)n1 [Example 151, 5-(6-methoxypyrazin-2-yl)-4-(morpholin-4-yl)-7H-pyrrolo[2,3-d]pyrimidine]
35.2 nM	304 nM	CC1(C)CN(c2ncnc3[nH]cc(-c4cccc(C#N)c4)c23)CCO1 [Example 210, 3-[4-(2,2-dimethylmorpholin-4-yl)-7H-pyrrolo[2,3-d]pyrimidin-5-yl]benzonitrile]
44 nM	134 nM	N#Cc1cccc(-c2c[nH]c3ncnc(N4CCOC(Cc5noc(C(F)F)n5)C4)c23)c1 (stereo not shown) [Example 130, 3-[4-(2-{[5-(difluoromethyl)-1,2,4-oxadiazol-3-yl]methyl}morpholin-4-yl)-7H-pyrrolo[2,3-d]pyrimidin-5-yl]benzonitrile]
34 nM	23 nM	CN(C)c1ncnc2[nH]cc(-c3cccc(CO)c3)c12 [Example 10, {3-[4-(Dimethylamino)-7H-pyrrolo[2,3-d]pyrimidin-5-yl]phenyl}methanol]
30 nM	84 nM	N#Cc1cccc(-c2c[nH]c3ncnc(N4CCOC(c5nc(C6CC6)no5)C4)c23)c1 (stereo not shown) [Example 142, 3-{4-[2-(3-cyclopropyl-1,2,4-oxadiazol-5-yl)morpholin-4-yl]-7H-pyrrolo[2,3-d]pyrimidin-5-yl}benzonitrile]
30.6 nM	79.3 nM	NC(=O)c1cccc(-c2c[nH]c3ncnc(N4CCOCC4)c23)n1 [Example 215, 6-[4-(morpholin-4-yl)-7H-pyrrolo[2,3-d]pyrimidin-5-yl]pyridine-2-carboxamide]
21 nM	102 nM	CC1CCN(c2ncnc3[nH]cc(-c4cccc(C#N)c4)c23)C1 (single isomer, unassigned) [Example 71]

IC50 [1]	IC50 (mutant G2019S LRRK2)	Compound
9 nM	12 nM	Fc1ccc(Cl)cc1-c1c[nH]c2ncnc(N3CCOCC3)c12 [Example 88, 5-(5-chloro-2-fluorophenyl)-4-(morpholin-4-yl)-7H-pyrrolo[2,3-d]pyrimidine]
15 nM	23 nM	COc1ccc(F)cc1-c1c[nH]c2ncnc(N3CC[C@H](F)C3)c12 [Example 185, 5-(5-fluoro-2-methoxyphenyl)-4-[(3S)-3-fluoropyrrolidin-1-yl]-7H-pyrrolo[2,3-d]pyrimidine]
14 nM	21 nM	N#Cc1cccc(-c2c[nH]c3ncnc(N4CCCC(N)C4)c23)c1 (stereo not shown) [Example 129, 3-[4-(3-aminopiperidin-1-yl)-7H-pyrrolo[2,3-d]pyrimidin-5-yl]benzonitrile]
54 nM	87 nM	Cc1ccc(OCC2CN(c3ncnc4[nH]cc(-c5cnn(C)c5)c34)CCO2)cn1 (stereo not shown) [Example 125, 5-(1-methyl-1H-pyrazol-4-yl)-4-(2-{[(6-methylpyridin-3-yl)oxy]methyl}morpholin-4-yl)-7H-pyrrolo[2,3-d]pyrimidine]
49 nM	136 nM	N#Cc1cccc(-c2c[nH]c3ncnc(N4CCCC(C(N)=O)C4)c23)c1 (stereo not shown) [Example 139, 1-[5-(3-cyanophenyl)-7H-pyrrolo[2,3-d]pyrimidin-4-yl]piperidine-3-carboxamide]
44 nM	34 nM	Cn1cc(-c2c[nH]c3ncnc(N4CCCC(O)C4)c23)cn1 (stereo not shown) [Example 120, 1-[5-(1-methyl-1H-pyrazol-4-yl)-7H-pyrrolo[2,3-d]pyrimidin-4-yl]piperidin-3-ol]
64 nM	65 nM	Cc1cc(-c2c[nH]c3ncnc(N4CCC[C@H](C)C4)c23)cnc1F [Example 49, 5-(6-fluoro-5-methylpyridin-3-yl)-4-[(3S)-3-methylpiperidin-1-yl]-7H-pyrrolo[2,3-d]pyrimidine]
66 nM	223 nM	N#Cc1cccc(-c2c[nH]c3ncnc(N4CCC(=O)CC4)c23)c1 [Example 132, 3-[4-(4-oxopiperidin-1-yl)-7H-pyrrolo[2,3-d]pyrimidin-5-yl]benzonitrile]
44 nM	46 nM	COc1ccc(F)cc1-c1c[nH]c2ncnc(N3CCOC(c4noc(C)n4)C3)c12 (stereo not shown) [Example 157, 5-(5-fluoro-2-methoxyphenyl)-4-[2-(5-methyl-1,2,4-oxadiazol-3-yl)morpholin-4-yl]-7H-pyrrolo[2,3-d]pyrimidine]
84 nM	200 nM	N#Cc1cccc(-c2c[nH]c3ncnc(N4CCCC(c5cc[nH]n5)C4)c23)c1 (stereo not shown) [Example 37, 3-{4-[3-(1H-pyrazol-3-yl)piperidin-1-yl]-7H-pyrrolo[2,3-d]pyrimidin-5-yl}benzonitrile]
9 nM	14 nM	c1ccc(-c2c[nH]c3ncnc(N4CCOCC4)c23)cc1 [Example 93, 4-(morpholin-4-yl)-5-phenyl-7H-pyrrolo[2,3-d]pyrimidine]
19 nM	47 nM	N#Cc1cccc(-c2c[nH]c3ncnc(N4CCOC(c5noc(C6CC6)n5)C4)c23)c1 (stereo not shown) [Example 135, 3-{4-[2-(5-cyclopropyl-1,2,4-oxadiazol-3-yl)morpholin-4-yl]-7H-pyrrolo[2,3-d]pyrimidin-5-yl}benzonitrile]
67 nM	31 nM	C[C@@H]1CN(c2ncnc3[nH]cc(-c4cnn(C)c4)c23)CCO1 [Example 122, 4-[(2R)-2-methylmorpholin-4-yl]-5-(1-methyl-1H-pyrazol-4-yl)-7H-pyrrolo[2,3-d]pyrimidine]
32 nM	75 nM	OCc1cccc(-c2c[nH]c3ncnc(N4CCOCC4)c23)c1F [Example 89, {2-fluoro-3-[4-(morpholin-4-yl)-7H-pyrrolo[2,3-d]pyrimidin-5-yl]phenyl}methanol]
76 nM	145 nM	Fc1ccc(F)c(-c2c[nH]c3ncnc(N4CCOCC4)c23)c1 [Example 86, 5-(2,5-difluorophenyl)-4-(morpholin-4-yl)-7H-pyrrolo[2,3-d]pyrimidine]
14 nM	23 nM	COc1ccccc1-c1c[nH]c2ncnc(N3CCOCC3)c12 [Example 101, 5-(2-methoxyphenyl)-4-(morpholin-4-yl)-7H-pyrrolo[2,3-d]pyrimidine]
85 nM	67 nM	COc1ccc(Cl)cc1-c1c[nH]c2ncnc(N3CCOCC3)c12 [Example 116, 5-(5-chloro-2-methoxyphenyl)-4-(morpholin-4-yl)-7H-pyrrolo[2,3-d]pyrimidine]
7 nM	37 nM	C[C@H]1CN(c2ncnc3[nH]cc(-c4cccc(C#N)c4)c23)CCO1 [Example 6, 3-{4-[(2S)-2-Methylmorpholin-4-yl]-7H-pyrrolo[2,3-d]pyrimidin-5-yl}benzonitrile]
71 nM	47 nM	c1ccc(-c2c[nH]c3ncnc(N4CCCC4)c23)cc1 [Example 18, 5-phenyl-4-(pyrrolidin-1-yl)-7H-pyrrolo[2,3-d]pyrimidine]
